Earlier results as cited in paper PMC5751249, “Anti-Diabetic Effect of Organo-Chalcogen (Sulfur and Selenium) Zinc Complexes with Hydroxy-Pyrone Derivatives on Leptin-Deficient Type 2 Diabetes Model ob/ob Mice” (International Journal of Molecular Sciences, 2017).

Tests used:
[1] = tested on: Isolated male Wistar rat epididymal adipocytes; parameters: method as in PMID 29843022; conditions: adrenaline-stimulated, means ± SDs, three runs, read-out: IC50 of free fatty acid release; cited from earlier work
[2] = tested on: Isolated male Wistar rat epididymal adipocytes; parameters: method as in PMID 29843022; conditions: 20 μM Zn complex, means ± SDs, three runs; cited from earlier work

Compound: O.O.O.O.O.O.O.O=S(=O)([O-])[O-].[Zn+2] [ZnSO4, Zinc sulfate heptahydrate, reference compound]
- IC50 [1]: 585 ± 305 µM
- Glucose Uptake [2]: none
